Assay results published in paper PMC6538953, “Metal Ions Activate the Human Taste Receptor TAS2R7” (Chemical Senses, 2019).
Where two headings read alike, the source gives them in different places.

Biological target: T1, human TAS2R7 (Homo sapiens, UniProt Q9NYW3)
T1 construct: first 45 residues of rat somatostatin receptor 3 (signal peptide) (N); expressed in transfected cells; host or cells: HEK293 (PEAKrapid, ATCC CRL-2828)
T1 sequence (Q9NYW3 1-318): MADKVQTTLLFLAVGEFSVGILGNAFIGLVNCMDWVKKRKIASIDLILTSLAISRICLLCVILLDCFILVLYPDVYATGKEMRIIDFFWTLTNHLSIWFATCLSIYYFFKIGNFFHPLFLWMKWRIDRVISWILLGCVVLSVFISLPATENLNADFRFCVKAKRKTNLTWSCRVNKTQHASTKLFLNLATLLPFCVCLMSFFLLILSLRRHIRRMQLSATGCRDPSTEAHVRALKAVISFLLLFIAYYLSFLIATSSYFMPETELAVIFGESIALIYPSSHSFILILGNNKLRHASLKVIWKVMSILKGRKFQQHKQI
Test: Calcium mobilization assay, HEK293 cells transfected with TAS2R7 and Gα16-gust44
Format: cell-based
Excerpt: The coding sequences of human TAS2Rs were amplified from human genomic DNA, then subcloned into pcDNA3.1(+) vector, with the herpes simplex virus glycoprotein D epitope (HSV) at the C-terminal and a signal peptide consisting of the first 45 amino acid residues of the rat somatostatin receptor 3 at the N-terminal, essentially as described previously ([Bufe et al. 2002]). Point mutations in human TAS2R7 (NCBI Reference Sequence: NP_076408.1) were constructed by site-directed mutagenesis. All the constructs were confirmed by Sanger sequencing.
All tested compounds were purchased from Sigma–Aldrich, with the exception of diphenidol hydrochloride (Reagent World) and L-praziquantel (manufactured by Shaoxing Pharmaceutical Co. Ltd.). All the metal ions were dissolved in the assay solution (130 mM NaCl, 5 mM KCl, 2 mM CaCl2, and 10 mM glucose; pH 7.4) unless specified otherwise, and the bitter compounds (diphenidol, quinine, and chlorphenamine) were dissolved first in dimethyl sulfoxide (DMSO) as stock solution and then diluted with the assay solution; the final DMSO concentration was below 0.5%, with the exception of cromolyn, which is dissolved in the assay solution directly. For our initial screening (Table 1), Hanks’ balanced salt solution (HBSS, ThermoFisher, catalog no. 14025134) supplemented with 10 mM hydroxyethyl piperazineethanesulfonic acid (HEPES) were used as the assay buffer.
Human embryonic kidney 293 (PEAKrapid, ATCC # CRL-2828) cells were cultured in Opti-MEM medium with 4% fetal bovine serum. One day before transfection, cells were seeded on a 96-well plate at a density of 25 000 per well. Cells were then transiently transfected with a TAS2R construct (0.1 µg/well) along with a G protein Gα16-gust44 (0.1 µg/well) construct by Lipofectamine 2000 (0.5 µl/well). For controls, only Gα16-gust44 was used (mock transfection). Twenty-four hours after transfection, cells were washed with HBSS including 10 mM HEPES and loaded with Fluo-4 in the dark for 1 h. After incubation, cells were washed 2 times with HBSS (including 10 mM HEPES), incubated in the dark for another 30 min, and then washed with assay solution once more before running the assay using a FlexStation III reader. Relative fluorescence units (excitation at 494 nm, emission at 516 nm, and auto cutoff at 515 nm) were read every 2 s for 2 min. Calcium mobilization traces were recorded.
Calcium mobilization traces were raw data obtained from single wells. Changes in fluorescence (ΔF) were calculated as the peak fluorescence minus baseline fluorescence ([Lei et al. 2015]). The calcium mobilization was quantified as the percentage of change (ΔF) relative to baseline (F). […] Calcium mobilization traces and bar graphs along with dose-dependent plots were all generated by GraphPad Prism 7. Analysis of variance with Dunnett’s multiple comparisons test was used for statistical analysis. *P < 0.05.
To determine whether a TAS2R responds to metal ions, we expressed all 25 human bitter receptors individually in HEK293 cells (PEAKrapid) by transient transfection of a TAS2R along with a coupling chimeric G protein, Gα16-gust44. All TAS2Rs were cloned from human genomic DNA. Activation of human TAS2Rs was monitored by the calcium mobilization assay ([Lei et al. 2015]). We tested these receptors individually for their responses toward metal ions: ZnSO4 (20 mM), CuSO4 (20 mM), and MgCl2 (20 mM) (Table 1, Figure 1A). […] To determine the breadth of tuning of TAS2R7 toward metal ions, we also tested MnCl2 (20 mM), Al2(SO4)3 ([…]), and CaCl2 (20 mM) (Figure 1B).

## O=C(O)c1cc(=O)c2c(OCC(O)COc3cccc4oc(C(=O)O)cc(=O)c34)cccc2o1 [cromolyn, reference compound]
10 mM
  Response of TAS2R7-transfected cells at higher dose: robust response
Figure 4B, read-out: EC50, TAS2R7, dose-response analysis
  EC50: 5.9 mM
Assay solution containing calcium, Figures 3A, 4C, read-out: EC50, TAS2R7, in the presence of calcium
  EC50: 6.67 mM
Assay solution containing no calcium, Figures 3A, 4C, read-out: EC50, TAS2R7, in the absence of calcium
  EC50: 5.22 mM
Assay solution without calcium compared with calcium
  Maximal response of TAS2R7 in the absence versus presence of calcium: smaller
At the concentrations reported previously (Meyerhof et al. 2010), Figure 4A
  Compounds triggering detectable responses in cells transfected with TAS2R7: none
